ChEMBL document CHEMBL1138276, “Discovery of small-molecule inhibitors of tyrosinase” (Bioorg Med Chem Lett, 2007)

Tests used:
[1] = molecular target: T1, Tyrosinase (Agaricus bisporus) (UniProt O42713); assay: Inhibition of mushroom tyrosinase at 15 uM
T1 sequence (whole entry): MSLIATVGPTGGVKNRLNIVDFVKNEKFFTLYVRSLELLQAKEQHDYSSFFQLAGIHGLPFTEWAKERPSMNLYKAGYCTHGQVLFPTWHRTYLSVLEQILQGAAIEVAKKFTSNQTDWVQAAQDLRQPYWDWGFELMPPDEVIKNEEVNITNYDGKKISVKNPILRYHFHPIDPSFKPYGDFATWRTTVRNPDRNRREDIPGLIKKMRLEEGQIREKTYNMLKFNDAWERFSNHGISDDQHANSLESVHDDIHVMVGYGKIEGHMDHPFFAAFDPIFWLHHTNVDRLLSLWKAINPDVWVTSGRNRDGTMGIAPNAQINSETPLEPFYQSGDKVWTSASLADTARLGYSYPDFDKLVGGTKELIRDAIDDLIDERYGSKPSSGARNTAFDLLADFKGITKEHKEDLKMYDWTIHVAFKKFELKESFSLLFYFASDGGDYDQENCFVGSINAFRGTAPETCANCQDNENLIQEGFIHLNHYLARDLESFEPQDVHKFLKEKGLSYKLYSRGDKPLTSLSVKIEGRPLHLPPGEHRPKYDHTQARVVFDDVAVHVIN

[2] = molecular target: T1, Tyrosinase (Agaricus bisporus); assay: Inhibition of mushroom tyrosinase at 1.7 uM
[3] = (§1) Decrease of pigmentation in human MNT1 cells at 15 uM after 4 days; type: functional; conditions: MNT-1, 96 h
[4] = molecular target: T2, Tyrosinase (Agaricus bisporus, UniProt O42713); assay: Inhibition of mushroom tyrosinase
T2 sequence (O42713 whole entry): T1 sequence (whole entry)

[5] = tested on: MNT1; assay: as §1; type: functional

inhibition [1] [%]	inhibition [2] [%]	IC50 [4] [nM]	Structure (SMILES)	inhibition at 15 µM [3] [%]	Activity [5]
40	25		C/C(=N\NC(=N)SC1CC(=O)N(c2ccc(Cl)cc2)C1=O)c1cccs1 (stereo not drawn)	19	
			Cc1ccc(-c2csc(Nc3cc(C)ccn3)n2)cc1	75	
54	41		S=c1[nH]c(-c2ccc3c(c2)OCO3)cn1-c1ccc(Oc2ccccc2)cc1	44	
			Cc1ccn2c(-c3csc(Nc4ccccn4)n3)c(C)nc2c1	48	
		100	Cc1ccnc(Nc2nc(-c3ccc(O)cc3O)cs2)c1	83	
43	40		COc1ccc2nc(SCC(=O)Nc3ccc4c(c3)OCCO4)[nH]c2c1	34	
51	47		CCCCCOc1ccc(NC2=C(N3CCCC3)C(=O)c3ccccc3C2=O)cc1	48	
48	23		O=S(=O)(c1ccc(NC(=S)Nc2ccccc2)cc1)N1CCCCC1	56	
66	47		Cc1ccccc1NC(=O)CSC(N)=O	-15	
			Cc1cccnc1Nc1nc(-c2ccc(O)cc2O)cs1	74	
		2000	COc1ccc(-c2nc(-c3ccc(O)cc3O)cs2)c(OC)c1	91	
52	44		C/C(=N\NC(=S)Nc1cccc(C)c1)c1cccc(N)c1	38	
46	36		CC(=O)Nc1ccc(Nc2nc(-c3c(C)nc4ccc(C)cn34)cs2)cc1		Toxic
			O=C(O)c1cccc(Nc2nc(-c3ccc(O)cc3O)cs2)c1	-6	
			Oc1ccc(-c2csc(Nc3ccccn3)n2)c(O)c1	54	
